Measurements reported in the CheMixHub viscosity set.
“And” between values parts separate entries of the source, which are not always exact repeats. Identical values can stand only once.

Assay: xn = mol fraction of the nth substance listed

NCCNCCN + O
viscosity [mPa·s], 101 kPa
Conditions	293.15 K	298.15 K	303.15 K	313.15 K	323.15 K
x1 = 0.0425	–	2.44	2.06	1.55	1.23
x1 = 0.0565	–	–	–	–	1.615
x1 = 0.0568	–	3.46	2.88	2.07	1.6
x1 = 0.1	11.17	–	7.2	4.78	3.41
x1 = 0.1999	48.86	–	24.8	14.08	8.54
x1 = 0.2999	61.11	–	30.19	16.63	10.2
x1 = 0.3997	44.08	–	23.49	13.62	8.35
x1 = 0.4997	29.78	–	16.66	10.31	6.79
x1 = 0.5997	20.36	–	12.11	7.77	5.28
x1 = 0.6996	14.64	–	9.24	6.17	4.22
x1 = 0.7992	10.95	–	–	4.9	3.55
x1 = 0.8073	–	–	–	–	3.445
x1 = 0.8954	8.515	–	–	–	–
x1 = 0.8989	8.48	–	5.52	4.11	3.03

O.OC[C@H]1O[C@H](O[C@H]2[C@H](O)[C@@H](O)[C@H](O)O[C@@H]2CO)[C@H](O)[C@@H](O)[C@@H]1O + O
viscosity [mPa·s]
Conditions	x1 = 0.000899	x1 = 0.001221	x1 = 0.001607	x1 = 0.001874	x1 = 0.002333	x1 = 0.002646	x1 = 0.006
298.15 K, 101 kPa	0.936	0.956	0.974	0.988	1.012	1.026	–
308.15 K, 101 kPa	0.756	0.77	0.785	0.795	0.815	0.825	–
310 K, 101.3 kPa	–	–	–	–	–	–	1.09
318.15 K, 101 kPa	0.626	0.636	0.649	0.657	0.671	0.681	–

OC[C@H]1O[C@@](CO)(O[C@H]2O[C@H](CO)[C@@H](O)[C@H](O)[C@H]2O)[C@@H](O)[C@@H]1O + O
Conditions	viscosity
293.15 K, 101 kPa, x1 = 0.00581	1.26 mPa·s and 1.27 mPa·s
293.15 K, 101 kPa, x1 = 0.013	1.96 mPa·s
293.15 K, 101 kPa, x1 = 0.0221	3.21 mPa·s
293.15 K, 101 kPa, x1 = 0.0339	6.2 mPa·s
293.15 K, 101 kPa, x1 = 0.05	15.04 mPa·s and 15.1 mPa·s
293.15 K, 101 kPa, x1 = 0.0732	56.76 mPa·s and 76.48 mPa·s
293.16 K, 101.3 kPa, x1 = 0.013	1.96 mPa·s
293.16 K, 101.3 kPa, x1 = 0.073	56.5 mPa·s
298.15 K, 100 kPa, x1 = 0.0009	1.035 mPa·s
298.15 K, 100 kPa, x1 = 0.001818	0.98 mPa·s
298.15 K, 100 kPa, x1 = 0.004482	1.104 mPa·s
298.15 K, 100 kPa, x1 = 0.007149	1.222 mPa·s
298.15 K, 100 kPa, x1 = 0.008888	1.295 mPa·s
298.15 K, 101 kPa, x1 = 0.003	1.03 mPa·s
298.15 K, 101 kPa, x1 = 0.0058	1.194 mPa·s
298.15 K, 101 kPa, x1 = 0.00581	1.13 mPa·s
298.15 K, 101 kPa, x1 = 0.013	1.715 mPa·s and 1.7 mPa·s
298.15 K, 101 kPa, x1 = 0.017	2.15 mPa·s
298.15 K, 101 kPa, x1 = 0.0221	2.65 mPa·s
298.15 K, 101 kPa, x1 = 0.0339	5.17 mPa·s
298.15 K, 101 kPa, x1 = 0.05	11.49 mPa·s and 11.8 mPa·s
298.15 K, 101 kPa, x1 = 0.0732	43.88 mPa·s and 47.98 mPa·s
303.15 K, 100 kPa, x1 = 0.0009	0.944 mPa·s
303.16 K, 101.3 kPa, x1 = 0.013	1.504 mPa·s
303.16 K, 101.3 kPa, x1 = 0.073	33.78 mPa·s
308.15 K, 100 kPa, x1 = 0.0009	0.8578 mPa·s
308.15 K, 100 kPa, x1 = 0.001818	0.789 mPa·s
308.15 K, 100 kPa, x1 = 0.002681	0.822 mPa·s
308.15 K, 100 kPa, x1 = 0.003594	0.855 mPa·s
308.15 K, 100 kPa, x1 = 0.004482	0.886 mPa·s
308.15 K, 100 kPa, x1 = 0.00626	0.949 mPa·s
308.15 K, 100 kPa, x1 = 0.007149	0.978 mPa·s
308.15 K, 100 kPa, x1 = 0.008888	1.035 mPa·s
308.15 K, 101 kPa, x1 = 0.001814	0.712 mPa·s
308.15 K, 101 kPa, x1 = 0.003	0.822 mPa·s
308.15 K, 101 kPa, x1 = 0.003622	0.777 mPa·s
308.15 K, 101 kPa, x1 = 0.0058	0.949 mPa·s
308.15 K, 101 kPa, x1 = 0.00581	0.89 mPa·s and 0.92 mPa·s
308.15 K, 101 kPa, x1 = 0.007213	0.915 mPa·s
308.15 K, 101 kPa, x1 = 0.0092	1.117 mPa·s
308.15 K, 101 kPa, x1 = 0.013	1.337 mPa·s and 1.35 mPa·s
308.15 K, 101 kPa, x1 = 0.01428	1.291 mPa·s
308.15 K, 101 kPa, x1 = 0.017	1.654 mPa·s
308.15 K, 101 kPa, x1 = 0.01781	1.535 mPa·s
308.15 K, 101 kPa, x1 = 0.0224	2.075 mPa·s
308.15 K, 101 kPa, x1 = 0.0279	2.588 mPa·s
308.15 K, 101 kPa, x1 = 0.0339	3.8 mPa·s
308.15 K, 101 kPa, x1 = 0.0354	3.655 mPa·s
308.15 K, 101 kPa, x1 = 0.05	8.69 mPa·s
308.15 K, 101 kPa, x1 = 0.05167	6.396 mPa·s
308.15 K, 101 kPa, x1 = 0.0732	26.67 mPa·s and 27.9 mPa·s
313.15 K, 100 kPa, x1 = 0.0009	0.7866 mPa·s
313.15 K, 101 kPa, x1 = 0.00581	0.82 mPa·s
313.15 K, 101 kPa, x1 = 0.013	1.2 mPa·s
313.15 K, 101 kPa, x1 = 0.0339	3.25 mPa·s
313.15 K, 101 kPa, x1 = 0.05	6.35 mPa·s and 6.35 mPa·s
313.15 K, 101 kPa, x1 = 0.0732	21.32 mPa·s and 25.87 mPa·s
313.16 K, 101.3 kPa, x1 = 0.013	1.193 mPa·s
313.16 K, 101.3 kPa, x1 = 0.073	21.28 mPa·s
318.15 K, 100 kPa, x1 = 0.001818	0.657 mPa·s
318.15 K, 100 kPa, x1 = 0.002681	0.683 mPa·s
318.15 K, 100 kPa, x1 = 0.003594	0.709 mPa·s
318.15 K, 100 kPa, x1 = 0.004482	0.733 mPa·s
318.15 K, 100 kPa, x1 = 0.00626	0.783 mPa·s
318.15 K, 100 kPa, x1 = 0.007149	0.805 mPa·s
318.15 K, 100 kPa, x1 = 0.008888	0.86 mPa·s
318.15 K, 101 kPa, x1 = 0.00581	0.74 mPa·s
318.15 K, 101 kPa, x1 = 0.00722	0.771 mPa·s
318.15 K, 101 kPa, x1 = 0.01077	0.9 mPa·s
318.15 K, 101 kPa, x1 = 0.013	1.06 mPa·s
318.15 K, 101 kPa, x1 = 0.01432	0.984 mPa·s
318.15 K, 101 kPa, x1 = 0.01785	1.164 mPa·s
318.15 K, 101 kPa, x1 = 0.02128	1.431 mPa·s
318.15 K, 101 kPa, x1 = 0.0221	1.51 mPa·s
318.15 K, 101 kPa, x1 = 0.0339	2.84 mPa·s
318.15 K, 101 kPa, x1 = 0.03502	2.618 mPa·s
318.15 K, 101 kPa, x1 = 0.05	5.04 mPa·s and 5.1 mPa·s
318.15 K, 101 kPa, x1 = 0.0732	17.2 mPa·s and 17.98 mPa·s
323.15 K, 101 kPa, x1 = 0.00581	0.66 mPa·s
323.15 K, 101 kPa, x1 = 0.013	0.98 mPa·s
323.15 K, 101 kPa, x1 = 0.0221	1.36 mPa·s
323.15 K, 101 kPa, x1 = 0.0339	2.52 mPa·s
323.15 K, 101 kPa, x1 = 0.05	4.78 mPa·s and 4.82 mPa·s
323.15 K, 101 kPa, x1 = 0.0732	14.07 mPa·s and 16.78 mPa·s

[F-].[K+] + O
Conditions	viscosity [mPa·s]
298.15 K, 100 kPa, x1 = 0.02	1.005
298.15 K, 100 kPa, x1 = 0.03	1.133
298.15 K, 100 kPa, x1 = 0.07	1.53
298.15 K, 100 kPa, x1 = 0.1	2.16
298.15 K, 100 kPa, x1 = 0.2	3.23
303.15 K, 101 kPa, x1 = 0.002	0.808
303.15 K, 101 kPa, x1 = 0.005	0.828
303.15 K, 101 kPa, x1 = 0.009	0.849
308.15 K, 101 kPa, x1 = 0.002	0.735
308.15 K, 101 kPa, x1 = 0.005	0.754
308.15 K, 101 kPa, x1 = 0.009	0.778
313.15 K, 101 kPa, x1 = 0.005	0.687
313.15 K, 101 kPa, x1 = 0.009	0.709
318.15 K, 101 kPa, x1 = 0.005	0.632
318.15 K, 101 kPa, x1 = 0.009	0.651
323.15 K, 100 kPa, x1 = 0.02	0.5955
323.15 K, 100 kPa, x1 = 0.03	0.7039
323.15 K, 100 kPa, x1 = 0.07	0.9529
323.15 K, 100 kPa, x1 = 0.1	1.35
323.15 K, 100 kPa, x1 = 0.2	2.021
